The target of experiment [1] is T1, Alpha-2B adrenergic receptor (Homo sapiens) (UniProt P18089).
T1 sequence (whole entry): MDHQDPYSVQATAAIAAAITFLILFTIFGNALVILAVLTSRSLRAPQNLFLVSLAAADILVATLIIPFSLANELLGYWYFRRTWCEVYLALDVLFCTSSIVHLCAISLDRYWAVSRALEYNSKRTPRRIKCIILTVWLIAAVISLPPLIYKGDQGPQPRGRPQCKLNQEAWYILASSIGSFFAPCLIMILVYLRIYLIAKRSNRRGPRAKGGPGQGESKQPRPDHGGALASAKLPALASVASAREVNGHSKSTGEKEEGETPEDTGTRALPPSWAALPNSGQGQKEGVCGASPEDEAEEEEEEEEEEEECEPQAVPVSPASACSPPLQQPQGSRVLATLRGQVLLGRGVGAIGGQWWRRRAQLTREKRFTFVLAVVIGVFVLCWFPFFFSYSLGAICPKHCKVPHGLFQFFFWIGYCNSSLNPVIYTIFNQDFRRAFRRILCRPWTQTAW
In words: Intrinsic activity at human adrenoceptor aplha 2B expressed in CHO cells by cytosensor microphysiometric analysis relative to (-)-noradrenaline. The experiment is classed as cell-based.

In experiment [2] the target is T2, Alpha-2B adrenergic receptor (Homo sapiens, UniProt P18089).
T2 sequence (P18089 whole entry): T1 sequence (whole entry)
The experiment is described as follows: Agonist activity at human adrenoceptor aplha 2B expressed in CHO cells assessed as rate of extracellular acidification by cytosensor microphysiometric analysis. The experiment is classed as functional, cell-based.

The target in experiment [3] is T3, Alpha-2C adrenergic receptor (Homo sapiens) (UniProt P18825).
T3 sequence (whole entry): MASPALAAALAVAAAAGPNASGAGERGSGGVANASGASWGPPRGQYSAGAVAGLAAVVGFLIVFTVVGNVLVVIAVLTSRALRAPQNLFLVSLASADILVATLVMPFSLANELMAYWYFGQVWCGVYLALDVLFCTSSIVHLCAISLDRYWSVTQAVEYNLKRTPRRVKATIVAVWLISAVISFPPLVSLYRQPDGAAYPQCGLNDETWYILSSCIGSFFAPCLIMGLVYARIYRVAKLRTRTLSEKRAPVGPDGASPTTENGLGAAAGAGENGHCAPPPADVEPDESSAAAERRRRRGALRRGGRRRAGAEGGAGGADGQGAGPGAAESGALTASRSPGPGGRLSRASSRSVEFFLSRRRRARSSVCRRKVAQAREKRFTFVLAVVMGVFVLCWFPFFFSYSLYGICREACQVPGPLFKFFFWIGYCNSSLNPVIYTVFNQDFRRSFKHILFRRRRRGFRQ
In words: Intrinsic activity at human adrenoceptor aplha 2C expressed in CHO cells by cytosensor microphysiometric analysis relative to (-)-noradrenaline. Type of experiment: cell-based.

The target in experiment [4] is T4, Alpha-2C adrenergic receptor (Homo sapiens, UniProt P18825).
T4 sequence (P18825 whole entry): T3 sequence (whole entry)
The experiment is described as follows: Agonist activity at human adrenoceptor aplha 2C expressed in CHO cells assessed as rate of extracellular acidification by cytosensor microphysiometric analysis. The experiment is classed as functional, cell-based.

Experiment [5] deals with T5, Alpha-2A adrenergic receptor (Homo sapiens) (UniProt P08913).
T5 sequence (whole entry): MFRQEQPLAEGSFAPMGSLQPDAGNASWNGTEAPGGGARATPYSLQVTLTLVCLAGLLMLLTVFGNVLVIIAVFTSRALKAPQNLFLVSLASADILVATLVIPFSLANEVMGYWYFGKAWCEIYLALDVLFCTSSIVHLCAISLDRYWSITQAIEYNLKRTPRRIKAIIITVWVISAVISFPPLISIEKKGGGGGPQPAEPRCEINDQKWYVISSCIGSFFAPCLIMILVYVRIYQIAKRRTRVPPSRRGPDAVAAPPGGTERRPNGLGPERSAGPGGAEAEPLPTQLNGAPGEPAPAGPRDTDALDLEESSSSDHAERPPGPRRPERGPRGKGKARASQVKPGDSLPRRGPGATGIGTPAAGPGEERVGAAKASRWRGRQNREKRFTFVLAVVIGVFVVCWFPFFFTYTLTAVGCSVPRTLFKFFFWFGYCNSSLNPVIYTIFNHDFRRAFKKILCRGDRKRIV
As to conditions: CHO.
Description: Antagonist activity at human adrenoceptor aplha 2A expressed in CHO cells assessed as inhibition of clonidine-induced response by cytosensor microphysiometric analysis

For experiment [6], the target named is T6, Alpha-2A adrenergic receptor (Homo sapiens, UniProt P08913).
T6 sequence (P08913 whole entry): T5 sequence (whole entry)
In words: Displacement of [3H]RS-79948-197 from human adrenoceptor aplha 2A expressed in CHO cells. The experiment is classed as cell-based.

The target in experiment [7] is T4, Alpha-2C adrenergic receptor. In words: Displacement of [3H]RS-79948-197 from human adrenoceptor aplha 2C expressed in CHO cells. Type of experiment: cell-based.
The target of experiment [8] is T6, Alpha-2A adrenergic receptor. The experiment is described as follows: Agonist activity at human adrenoceptor aplha 2A expressed in CHO cells assessed as rate of extracellular acidification by cytosensor microphysiometric analysis. Type of experiment: functional, cell-based.
The target of experiment [9] is T2, Alpha-2B adrenergic receptor. The experiment is described as follows: Displacement of [3H]RS-79948-197 from human adrenoceptor aplha 2B expressed in CHO cells. The experiment is classed as cell-based.

Consider `C=COc1ccccc1OC(C)C1=NCCN1` (centres undefined), for which the Intrinsic activity in experiment [1] is 0.45; in experiment [3] it was 0.48. Besides, the results for the EC50 in [2] and in [4] were 3.16 µM and 0.631 µM, respectively. The molecule also gave a pKb in [5] of 5.
Regarding `CC(Oc1ccccc1C=O)C1=NCCN1` (centres undefined), the figures for the Intrinsic activity in [1] and in experiment [3] were 0.5 and 0.6, respectively. The concentration for a half-maximal effect (EC50) in [2] is 0.316 µM; in [4], 0.1 µM; in [8] it was 0.0316 µM. For the same molecule, the results for the Ki in experiment [6], in [7] and in experiment [9] were 1.05 µM, 8.71 µM and 2.09 µM, respectively.
For `CCc1cccc(CC)c1OC(C)C1=NCCN1` (centres undefined), the Intrinsic activity in experiment [1] is 0.8; in [3] it was 0.65. Moreover, the EC50 in [2] was 1 µM; in experiment [4] it was 0.0275 µM; in [8], 0.0117 µM. Moreover, the Ki was 0.0316 µM in [6], 0.275 µM in [7] and 0.269 µM in experiment [9].
Take `CC(Oc1ccccc1Br)C1=NCCN1` (centres undefined): the Intrinsic activity in experiment [1] is 0.4; in experiment [3], 0.87. The figures for the EC50 in experiment [2] and in experiment [4] were 0.316 µM and 0.01 µM, respectively. The Ki in experiment [6] is 0.0229 µM; in experiment [7], 0.282 µM; in experiment [9] it was 0.355 µM. This molecule had a negative-log Kb (pKb) in experiment [5] of 7.04.
As to `COc1ccccc1OC(C)C1=NCCN1` (centres undefined), the Intrinsic activity worked out at 0.5 in experiment [1] and 0.6 in experiment [3]. The EC50 in [2] was 100 µM; in [4], 9.77 µM. Besides, the inhibition constant Ki in [6] is 0.0575 µM; in experiment [7], 0.832 µM; in [9], 0.871 µM. Further, the pKb in [5] is 6.6.
Take `CC(Oc1ccccc1S(C)(=O)=O)C1=NCCN1` (centres undefined): the Intrinsic activity worked out at 0.45 in experiment [1] and 0.6 in [3]. Moreover, the half-maximal effective concentration (EC50) was 10 µM in experiment [2], 0.316 µM in experiment [4] and 0.562 µM in [8]. The Ki in experiment [6] is 3.16 µM; in experiment [7], 3.8 µM; in [9], 51.3 µM.
With `C=CCc1cccc(CC=C)c1OC(C)C1=NCCN1` (centres undefined), the Intrinsic activity amounted to 0.65 in experiment [1] and 0.9 in [3]. The EC50 is 0.501 µM in [2] and 0.0562 µM in [4]. Besides, the Ki is 0.0166 µM in experiment [6], 0.129 µM in experiment [7] and 0.275 µM in experiment [9]. In addition, the pKb in [5] came out at 8.56.
In the case of `CC(Oc1c(Cl)cccc1Cl)C1=NCCN1` (centres undefined) [LOFEXIDINE], the Intrinsic activity in experiment [1] and in experiment [3] was 0.8 each time. In addition, the 50% effective concentration (EC50) in experiment [2] is 0.126 µM; in experiment [4], 0.00138 µM. Besides, the Ki was 0.0692 µM in experiment [7] and 0.0676 µM in experiment [9].
As to `C=C(C)c1ccccc1OC(C)C1=NCCN1` (centres undefined), the Intrinsic activity came out at 0.4 in experiment [1] and 0.71 in experiment [3]. Besides, the EC50 in experiment [2] is 1.58 µM; in [4], 0.115 µM. Moreover, the inhibition constant (Ki) in experiment [6] was 0.0724 µM; in experiment [7], 0.603 µM; in experiment [9], 0.871 µM. Further, in experiment [5], the pKb was 7.
On to `CCOc1ccccc1OC(C)C1=NCCN1` (centres undefined), for which the Intrinsic activity in experiment [1] came out at 0.5; in experiment [3] it was 0.45. Besides, the half-maximal effective concentration (EC50) in experiment [2] was 3.16 µM; in experiment [4], 10 µM. Moreover, the inhibitory constant (Ki) in [6] is 0.0977 µM; in [7], 0.759 µM; in experiment [9] it was 1.32 µM. In [5], this molecule yielded a pKb of 6.5.
In the case of `CC(Oc1ccccc1C(F)(F)F)C1=NCCN1` (centres undefined), the results for the Intrinsic activity in [1] and in experiment [3] were 0.4 and 0.72, respectively. Moreover, the EC50 in [2] was 0.24 µM; in experiment [4], 0.794 µM. Moreover, the inhibition constant Ki in experiment [6] is 0.182 µM; in [7], 0.977 µM; in experiment [9], 1.62 µM. In experiment [5], this molecule gave a pKb of 6.42.
On to `CC(Oc1ccccc1Cl)C1=NCCN1` (centres undefined), for which the Intrinsic activity in experiment [1] came to 0.44; in experiment [3], 0.83. For the same molecule, the EC50 is 0.162 µM in experiment [2] and 0.166 µM in experiment [4]. Further, the inhibitory constant (Ki) in experiment [6] was 0.0288 µM; in experiment [7], 0.49 µM; in experiment [9] it was 0.331 µM. In experiment [5], this molecule yielded a negative logarithm of the Kb (pKb) of 7.2.
As for `CC(Oc1ccccc1CC1CC1)C1=NCCN1` (centres undefined) [CYCLOMETHYLINE], the Intrinsic activity in experiment [1] was determined as 0.7; in experiment [3] it was 0.8. Also, the 50% effective concentration (EC50) is 3.31 µM in experiment [2] and 0.002 µM in experiment [4]. For the same molecule, the inhibition constant Ki in [6] was 0.0363 µM; in [7], 0.275 µM; in experiment [9], 0.407 µM.
Take `CC(=O)c1ccccc1OC(C)C1=NCCN1` (centres undefined): the Intrinsic activity in experiment [1] stood at 0.6; in [3], 0.65. For the same molecule, the EC50 in experiment [2] is 0.295 µM; in [4], 0.2 µM; in experiment [8], 0.0631 µM. In addition, the inhibition constant (Ki) in [6] is 1.02 µM; in [7], 7.41 µM; in experiment [9], 6.17 µM.
On to `CC(C)Oc1ccccc1OC(C)C1=NCCN1` (centres undefined), for which the Intrinsic activity in experiment [1] was 0.5; in experiment [3], 0.7. In addition, the EC50 is 1.74 µM in [2] and 0.1 µM in experiment [4]. Further, the results for the Ki in [6], in experiment [7] and in experiment [9] were 0.0832 µM, 0.398 µM and 1.58 µM, respectively. Also, the negative logarithm of the Kb (pKb) in [5] amounted to 6.82.
Turning to `CC(Oc1c(-c2ccccc2)cccc1-c1ccccc1)C1=NCCN1` (centres undefined), the Intrinsic activity in [1] came out at 0.6; in experiment [3], 0.7. Besides, the figures for the EC50 in experiment [2] and in [4] were 0.2 µM and 0.0794 µM, respectively. Besides, the Ki is 0.49 µM in [6], 0.631 µM in experiment [7] and 4.57 µM in experiment [9]. Moreover, the negative-log Kb (pKb) in experiment [5] came to 8.
For `CC(Oc1ccccc1C(C)C)C1=NCCN1` (centres undefined), the Intrinsic activity is 0.54 in experiment [1] and 0.73 in experiment [3]. The concentration for a half-maximal effect (EC50) in experiment [2] was 0.251 µM; in experiment [4] it was 0.398 µM. Also, the figures for the Ki in experiment [6], in experiment [7] and in experiment [9] were 0.0724 µM, 0.457 µM and 0.933 µM, respectively. The molecule also came in with a pKb in [5] of 6.82.
For the molecule `CCc1ccccc1OC(C)C1=NCCN1` (centres undefined), the values for the Intrinsic activity in [1] and in experiment [3] were 0.5 and 0.6, respectively. Moreover, the results for the 50% effective concentration (EC50) in experiment [2] and in experiment [4] were 10 µM and 0.1 µM, respectively. For the same molecule, the inhibition constant (Ki) in [6] is 0.024 µM; in [7], 0.288 µM; in experiment [9] it was 0.282 µM. Moreover, the pKb in [5] is 6.
`Cc1cccc(C)c1OC(C)C1=NCCN1` (centres undefined): the Intrinsic activity in [1] is 0.8; in experiment [3], 0.82. Also, the EC50 was 1.48 µM in experiment [2], 0.0275 µM in [4] and 0.0186 µM in experiment [8]. Besides, the Ki was 0.0117 µM in experiment [6], 0.251 µM in [7] and 0.182 µM in experiment [9].
For the molecule `CC(Oc1ccccc1OC1CC1)C1=NCCN1` (centres undefined), the Intrinsic activity in experiment [1] was 0.6; in [3], 0.7. Further, the EC50 is 12.9 µM in [2] and 0.0479 µM in experiment [4]. Besides, the figures for the inhibition constant Ki in [6], in experiment [7] and in [9] were 0.0832 µM, 0.676 µM and 1.05 µM, respectively. In experiment [5], this molecule had a negative-log Kb (pKb) of 6.9.

Values taken from ChEMBL document CHEMBL1955818, “Might the observed α(2A)-adrenoreceptor agonism or antagonism of allyphenyline analogues be ascribed to different molecular conformations?” (Bioorg Med Chem, 2012).
